Test results: patent publication US20190091173A1, “METHOD OF […] BETWEEN […]” (ZOGENIX INTERNATIONAL LIMITED, priority 2017, published 2019)

Experiments:
[1] = system: seizures in patients with Dravet syndrome; details: long-term fenfluramine treatment; cited from earlier work
[2] = system: convulsive seizures in subjects with Dravet syndrome; test: Study 1 (ZX008-1501/ZX008-1502), Phase 3, randomized, double-blind, placebo-controlled; format: in vivo, human; details: 0.2 mg/kg/day, end of T+M Period, SD 140.46, p=0.735
Experimental: The first 119 subjects to be randomized in both identical studies combined were analyzed and reported as Study 1 (FIG. 1), covered by a Statistical Analysis Plan (SAP).
Primary and key secondary endpoints in the Study 1 SAP were pre-determined. All patients were treated twice per day over a period of 14 weeks using an oral syringe to administer the formulation. The treatment period included a two-week titration period and a 12-week maintenance period.
The initial results of Study 1 are outlined below. The randomized, double blind, placebo controlled, Phase 3 study enrolled 119 patients across sites in the United States, Canada, Europe and Australia. The median age of patients was 8 years, the mean age of patients was 9 years (range, 2-18 years) (FIG. 2).
Patients were titrated to their target dose over two weeks, and then remained at that fixed dose for 12 weeks. The mean baseline convulsive seizure frequency across the study groups was approximately 40 seizures per month. 110 (92%) patients completed the study (85% 0.8 mg/kg/day; 100% 0.2 mg/kg/day; 93% placebo). […]
The mean number of convulsive seizure free days, defined as a day for which diary data are available and no convulsive seizures have been reported, was determined for each treatment group during the Baseline and T+M Periods. […]

CCNC(C)Cc1cccc(C(F)(F)F)c1 (stereo not shown) [Fenfluramine, 3-trifluoromethyl-N-ethylamphetamine]
effect on types of seizures [1]: effectively reduced the incidence of all types of seizures
reduction in seizures [1]: 75%
test subjects in seizure-free condition [1]: 66.6%
reduction from Baseline in non-convulsive seizures (all types) per 28 days [2]: 9.7%
